Results reported in article PMC10065799, “High-throughput profiling of sequence recognition by tyrosine kinases and SH2 domains using bacterial peptide display” (eLife, 2023).
Each block holds one sequence with its values, some of them ahead of it.

Assays:
Assay in all cases: pTyr-Var library bacterial peptide display kinase screen (enrichment scores)
c-Abl kinase domain = molecular target: T1, c-Abl kinase domain (Mus musculus, UniProt P00520); assay type: biochemical
T1 sequence (P00520 242-493 limits assumed): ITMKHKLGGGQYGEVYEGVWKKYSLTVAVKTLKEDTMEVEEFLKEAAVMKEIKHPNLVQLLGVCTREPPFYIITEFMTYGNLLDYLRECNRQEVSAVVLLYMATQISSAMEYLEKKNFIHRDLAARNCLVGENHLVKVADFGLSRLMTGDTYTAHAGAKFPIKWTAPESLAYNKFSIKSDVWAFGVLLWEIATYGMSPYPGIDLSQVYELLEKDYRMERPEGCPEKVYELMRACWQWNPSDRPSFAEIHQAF

c-Src kinase domain = c-Src kinase domain (Homo sapiens, UniProt P12931); assay type: biochemical; conditions: sheet "Src"
Fer kinase domain = assay type: biochemical, mouse; conditions: sheet "Fer"
EPHB2 kinase domain = assay type: biochemical, human; conditions: sheet EPHB2; effect of variant peptide relative to its reference peptide in the pTyr-Var library screen (enrichment scores)
EPHB1 kinase domain = assay type: biochemical, human; conditions: sheet EPHB1; effect of the variant peptide relative to its reference peptide in the pTyr-Var library screen (enrichment scores)
[1] = sheet "Abl", effect of variant peptide relative to its reference peptide in pTyr-Var library screen (enrichment)
[2] = variant peptide versus its reference peptide in the pTyr-Var library screen
[3] = effect of the variant peptide relative to its reference peptide in the pTyr-Var library screen
[4] = fig5-data2, sheet "Abl", Screen for the variant/reference peptide pair, pTyr-Var library
[5] = variant peptide relative to its reference peptide, pTyr-Var library screen enrichment
[6] = value of the variant peptide against its reference peptide in the pTyr-Var library screen with Fer
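Also: log2 fold change in enrichment of variant over reference.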

Sequence: PMWHPYKADVT [TP53TG5_Y255_V257A]
Screen (c-Src kinase domain; [2]): -1.569

Sequence: SEKVVYQRFTE [NCF1_Y41_R42Q]
Screen (c-Src kinase domain; [2]): 2.147

Sequence: PADCRYFTFPQ [GAMT_Y222_A224T_YF]
Screen (c-Src kinase domain; [3]): 0.8198

Sequence: MSDVPYVMNRG [ACAT1_Y161_N158D]
Screen (c-Abl kinase domain; [4]): 0.04557

Sequence: ISRDVYSTDFF [NTRK2_Y702_M697I_YF]
Screen (c-Src kinase domain; [2]): 0.05631

Sequence: IGEGTYGVLFK [CDK2_Y15_V18L_YF]
Screen (c-Src kinase domain; [3]): 0.1027
Screen (EPHB2 kinase domain): -0.7589

Sequence: SVGGCYEQLFV [MC4R_Y41_D37V]
Screen (c-Src kinase domain; [3]): -0.5254
Screen (Fer kinase domain; [6]): -0.4465

Sequence: GHPFAYDWISI [BEST1_Y227_L224P_YF]
Screen (Fer kinase domain; [6]): -0.03554

Sequence: PSPMPYAFCQM [FOXL2_Y215_S217F]
Screen (c-Src kinase domain; [3]): 1.188
Screen (Fer kinase domain; [6]): 3.3

Sequence: FTGDIYSSSNL [LZTR1_Y141_N143S_YF]
Screen (c-Src kinase domain; [3]): -0.3427
Screen (Fer kinase domain; [6]): -0.3328

Sequence: SVESPYGSVTF [NDRG2_Y47_T45S]
Screen (c-Src kinase domain; [2]): 0.3806
Screen (Fer kinase domain; [6]): 0.8943

Sequence: SNNFIYTTLGV [FAM83B_Y639_K640T_YF]
Screen (c-Src kinase domain; [3]): 3.577
Screen (Fer kinase domain; [6]): 2.656
Screen (EPHB1 kinase domain): 2.305

Sequence: DAVCFYRMENA [NPHS2_Y195_I192V_YF]
Screen (c-Src kinase domain; [2]): 0.05721

Sequence: NTGDDYDLFGG [PTPN11_Y63_Y62D_YF]
Screen (c-Src kinase domain; [2]): -2.136
Screen (Fer kinase domain; [5]): -1.594

Sequence: TEDELYQLFLQ [RASGRP2_Y378_S381F]
Screen (c-Src kinase domain; [2]): 1.657
Screen (Fer kinase domain; [5]): 1.535

Sequence: LITTPYIGFLG [KCNQ1_Y267_L266P]
Screen (c-Src kinase domain; [3]): -1.29

Sequence: AVLSLYASGRN [ACTA1_Y145_T150N]
Screen (c-Abl kinase domain; [4]): -2.061

Sequence: VHLFAYDWISI [BEST1_Y227_G222V_YF]
Screen (Fer kinase domain; [6]): -0.5402

Sequence: REVPVYISEDS [SYNM_Y460_G462S]
Screen (c-Src kinase domain; [2]): 1.666

Sequence: LTELGYSFVTT [ACTA1_Y200_R198L]
Screen (Fer kinase domain; [6]): 0.9203

Sequence: KGEDFYCVTCP [FHL1_Y149_H154P]
Screen (c-Src kinase domain; [3]): 2.585
Screen (c-Abl kinase domain; [4]): -1.428
Screen (Fer kinase domain; [6]): 2.355

Sequence: EAEALYQTTFQ [KRT73_Y325_K328T]
Screen (c-Src kinase domain; [3]): 1.585
Screen (Fer kinase domain; [6]): 3.654
Screen (EPHB2 kinase domain): 1.238

Sequence: VDTPMYATMQR [TPO_Y55_A53P]
Screen (c-Src kinase domain; [2]): -0.2543

Sequence: EVTRLYGSVCD [TC2N_Y154_K151T]
Screen (c-Src kinase domain; [2]): 2.081

Sequence: VPLATYMQIFK [RPL21_Y30_R32Q_YF]
Screen (c-Src kinase domain; [2]): 1.658
Screen (EPHB1 kinase domain): 2.259

Sequence: SWSTSYSGFRC [NKAPL_Y91_Y96C_YF]
Screen (c-Src kinase domain; [2]): -0.8065
Screen (Fer kinase domain; [6]): -1.554

Sequence: LLRFLYFFVCS [SLC34A2_Y109_G106R]
Screen (c-Src kinase domain; [2]): -1.793
Screen (EPHB2 kinase domain): -1.518

Sequence: EAIMTYVSSFF [ACTN4_Y260_K255E_YF]
Screen (c-Abl kinase domain; [4]): -1.004

Sequence: LRSELYSLIAR [PHIP_Y16_F17S]
Screen (c-Src kinase domain; [2]): 0.6047
Screen (Fer kinase domain; [6]): 2.641
Screen (EPHB1 kinase domain): 1.727

Sequence: AEFGLYGAMVW [VSX2_Y222_R227W_YF]
Screen (c-Src kinase domain; [2]): -0.4242
Screen (c-Abl kinase domain; [1]): 3.628
Screen (Fer kinase domain; [5]): 1.328

Sequence: PQEVMYAQLDH [KIR3DL2_Y398_T397M]
Screen (c-Src kinase domain; [3]): -0.9154
Screen (Fer kinase domain; [6]): 0.4165

Sequence: ELTTCYRKKCS [CCBE1_Y70_C75S]
Screen (c-Abl kinase domain; [4]): -0.6974

Sequence: HFMELYDLNRD [BBS2_Y648_R643H_YF]
Screen (c-Src kinase domain; [3]): 1.185

The remaining lines, values ahead:

Screen (c-Abl kinase domain; [1]): 4.352
Sequence: AKLDIYKRKVE [VWA3B_Y918_N916D]

Screen (c-Abl kinase domain; [4]): -0.04852
Sequence: LDTSQYFRLFN [CPT2_Y217_M214T]

Screen (c-Abl kinase domain; [1]): -1.728
Sequence: VCDALYPPGPP [TTN_Y25928_A25923V]

Screen (Fer kinase domain; [5]): 1.725
Sequence: SVVVHYEPPEV [TP53_Y220_P219H]

Screen (c-Abl kinase domain; [1]): -1.634
Sequence: CHSDDYVHISI [TSC1_Y406_L411I]

Screen (Fer kinase domain; [6]): -0.9233
Sequence: KKDGPYDVVVL [PARK7_Y67_E64D]

Screen (Fer kinase domain; [5]): -2.093
Sequence: TLERHYKELQA [SPTBN2_Y834_E835K]

Screen (EPHB1 kinase domain): 1.456
Sequence: HFGNNYTDVLQ [MACC1_Y803_R804T_YF]

Screen (EPHB2 kinase domain): 1.544
Sequence: RLGVTYEQALA [MAP2_Y996_G991R]

Screen (c-Abl kinase domain; [4]): 0.06785
Sequence: NFPGGYSGSVK [MCPH1_Y606_L602F]

Screen (c-Abl kinase domain; [4]): 0.9886
Sequence: INMKEYCKKDF [NTN1_Y490_K489E_YF]

Screen (c-Abl kinase domain; [4]): 0.4229
Sequence: GGPAGYLWRAS [PKLR_Y38_R40W]

Screen (c-Abl kinase domain; [1]): -2.646
Sequence: AELKLYSGAQT [ZAP70_Y178_R175L]

Screen (c-Abl kinase domain; [4]): -0.1184
Sequence: LDPDSYNVFEN [FOXC1_Y159_M161V]

Screen (c-Abl kinase domain; [4]): -2.404
Sequence: RSSGGYEPRGC [FUS_Y239_R244C]

Screen (c-Abl kinase domain; [1]): 1.42
Sequence: VLAAQYTTVGR [SGSH_Y240_D235V]

Screen (c-Abl kinase domain; [4]): -2.367
Sequence: FMGVEYSSCDT [EPHA3_Y937_T933M]

Screen (c-Abl kinase domain; [4]): -0.6086
Sequence: GSERRYTREGG [PTPRN2_Y139_S140T]

Screen (Fer kinase domain; [5]): 1.488
Sequence: AAVPAYDKIQV [STXBP2_Y401_R405Q]

Screen (c-Abl kinase domain; [1]): 3.66
Sequence: NWGSPYKSDGC [ZNF347_Y261_N264D]
